# Molecular target: T1, gpH3R (Cavia porcellus, UniProt Q9JI35)
# T1 construct: isolated guinea pig ileum electrically stimulated to contraction; from tissue; host or cells: distal ileum of male guinea pigs
# Test: Ex vivo gpH3R screening on isolated guinea pig ileum electrically stimulated to contraction
# Method: All newly synthesized compounds were evaluated ex vivo as H3R antagonists/inverse agonists on guinea pig ileum (gpH3R) stimulated electrically for contraction.[47]
# The compounds were tested against H3R by an ex vivo assay using isolated guinea pig ileum electrically stimulated to contraction, according to Vollinga et al.[47] The pA2-values were calculated according to Arunlakshana and Schild.[59] The radioligand-displacement assay was performed in membrane fractions of HEK-293 cells stably expressing hH3R. Cell cultivation and membrane preparation were performed according to Kottke et al.[48] The Ki values were calculated from the IC50 values using the Cheng–Prusoff equation.[60] The statistical calculations were performed on −log(Ki). […] The inhibitory activities toward AChE and BuChE of novel ADS compounds were assessed in a spectrophotometric Ellman’s assay using electric eel AChE (eeAChE) and equine BuChE (eqBuChE).[57] Intracellular cAMP accumulation was measured with a homogeneous TR-FRET immunoassay using the LANCE Ultra cAMP kit (PerkinElmer) and HEK293 cells stably expressing the human histamine H3 receptor.[61] A more detailed description of the biological methods is presented in the Supporting Information.
# 3. Pharmacological assay results.
# 3.1. Ex vivo assay for histamine H 3R receptor antagonists on guinea pig ileum.
# Male guinea pigs, weighing 300-400 g were euthanized by a blow to the neck. Following this, a 20-30 cm length of the distal ileum, apart from the terminal 5 cm was rapidly removed and […]
# USA) (1·10 -6 mol/L). The intraluminal content was rinsed and the isolated intestine was cut into 1.5-2 cm segments. The preparations were mounted between two platinum electrodes […]
# and indomethacin (3·10 -7 mol/L).
# CO2 mixture and maintained at 37 °C under a constant load of 1.0 g (Hugo Sachs Hebel-Messvorsatz (Tl-2)/HF-modem; Hugo Sachs Elektronik, Hugstetten, Germany) connected to a pen recorder (Kipp & Zonen BD41, Delft, Holland). During an equilibration period of 60 min, the Krebs buffer was changed every 10 min. The preparations were then continuously stimulated at 15-20 V at a frequency of 0.1 Hz for a duration of 0.5 ms, with rectangular-wave electrical pulses (Grass Stimulator S-88; Grass Instruments Co., Quincy, Massachusetts, […]
# USA). […] Five minutes before (R)-(−)-α- […]
# methylhistamine (RAMH) (Toronto Research Chemicals Inc., North York, Canada), administration, pyrilamine (Sigma-Aldrich, St. Louis, MO, USA) (1·10-5 mol/L concentration in organ bath) was added. The first cumulative concentration-response curve was determined […]
# second to fourth curve was measured against increasing antagonist concentration (incubation time 20 min). The pA2-values were calculated according to Arunlakshana and Schild 5.
# Statistical analysis was carried out with the Student’s t-test. In all tests, a p<0.05 was […]
# considered statistically significant. The pA2 values were compared with the affinity of thioperamide (Sigma-Aldrich, St. Louis, MO, USA). […]
# T1 sequence (Q9JI35 whole entry): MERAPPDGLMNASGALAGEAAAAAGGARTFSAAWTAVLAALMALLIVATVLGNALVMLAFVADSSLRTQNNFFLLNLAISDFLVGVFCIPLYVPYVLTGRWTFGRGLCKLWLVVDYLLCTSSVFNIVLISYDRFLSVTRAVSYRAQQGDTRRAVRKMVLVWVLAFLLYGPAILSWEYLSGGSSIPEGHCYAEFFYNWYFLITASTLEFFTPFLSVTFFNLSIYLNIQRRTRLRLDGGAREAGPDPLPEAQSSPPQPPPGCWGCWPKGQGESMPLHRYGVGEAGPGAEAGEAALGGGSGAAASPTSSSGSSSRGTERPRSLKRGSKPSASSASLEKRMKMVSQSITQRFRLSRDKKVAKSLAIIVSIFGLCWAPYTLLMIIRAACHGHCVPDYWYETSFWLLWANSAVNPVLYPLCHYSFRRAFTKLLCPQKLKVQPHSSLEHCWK
smiles,measurement,value
"CCCN(C)Cc1ccc2cc(COC3CCN(Cc4ccccc4)CC3)ccc2c1 [ADS031, N-((6-(((1-Benzylpiperidin-4-yl)oxy)methyl)naphthalen-2-yl)methyl)-N-methylpropan-1-amine]",Kb,28.8 nM

# Source: paper PMC10958501, “4-Oxypiperidine Ethers as Multiple Targeting Ligands at Histamine H3 Receptors and Cholinesterases” (ACS Chemical Neuroscience, 2024)
